From the NIST ThermoML archive (doi:10.1016/j.jct.2013.04.021)
Numbers after ± are expanded uncertainties.

Experiment: xn = mol fraction of the nth substance listed
Details: 101 kPa, Liquid; for mass density: Vibrating tube method; for speed of sound: fixed-path interferometer; for viscosity: Capillary tube (Ostwald / Ubbelohde) method

CCCCOCCO [2-butoxyethan-1-ol] + CCCCCCCCCCO
Details	mass density [kg/m3]	speed of sound [m/s]	viscosity [mPa·s]
293.15 K, x1 = 0.0563	832.457 ± 0.24	1392 ± 1.6	–
293.15 K, x1 = 0.1024	834.521 ± 0.24	1388.2 ± 1.6	–
293.15 K, x1 = 0.1544	836.95 ± 0.24	1383.8 ± 1.6	–
293.15 K, x1 = 0.2049	839.424 ± 0.24	1379.5 ± 1.6	–
293.15 K, x1 = 0.2531	841.903 ± 0.24	1374.8 ± 1.6	–
293.15 K, x1 = 0.3066	844.775 ± 0.24	1369.9 ± 1.6	–
293.15 K, x1 = 0.4028	850.363 ± 0.24	1360.7 ± 1.6	–
293.15 K, x1 = 0.5033	856.773 ± 0.24	1351.5 ± 1.6	–
293.15 K, x1 = 0.6031	863.803 ± 0.24	1343.5 ± 1.6	–
293.15 K, x1 = 0.7009	871.448 ± 0.24	1337.1 ± 1.6	–
293.15 K, x1 = 0.8043	880.396 ± 0.24	1331.2 ± 1.6	–
293.15 K, x1 = 0.8532	884.962 ± 0.24	1328.7 ± 1.6	–
293.15 K, x1 = 0.8996	889.528 ± 0.24	1326.3 ± 1.6	–
293.15 K, x1 = 0.9447	894.239 ± 0.24	1324.5 ± 1.6	–
298.15 K, x1 = 0.0563	829 ± 0.24	1374.9 ± 1.6	10.7 ± 0.24
298.15 K, x1 = 0.1024	831.148 ± 0.24	1371.1 ± 1.6	9.884 ± 0.22
298.15 K, x1 = 0.1544	833.643 ± 0.24	1366.8 ± 1.6	9.125 ± 0.2
298.15 K, x1 = 0.2049	836.177 ± 0.24	1362.6 ± 1.6	8.425 ± 0.19
298.15 K, x1 = 0.2531	838.694 ± 0.24	1358.3 ± 1.6	7.84 ± 0.17
298.15 K, x1 = 0.3066	841.628 ± 0.24	1353.7 ± 1.6	7.29 ± 0.16
298.15 K, x1 = 0.4028	847.26 ± 0.24	1344.9 ± 1.6	6.351 ± 0.14
298.15 K, x1 = 0.5033	853.675 ± 0.24	1336.1 ± 1.6	5.491 ± 0.12
298.15 K, x1 = 0.6031	860.637 ± 0.24	1328.2 ± 1.6	4.852 ± 0.11
298.15 K, x1 = 0.7009	868.128 ± 0.24	1321.1 ± 1.5	4.26 ± 0.094
298.15 K, x1 = 0.8043	876.828 ± 0.24	1314.9 ± 1.5	3.68 ± 0.081
298.15 K, x1 = 0.8532	881.288 ± 0.24	1312.6 ± 1.5	3.446 ± 0.076
298.15 K, x1 = 0.8996	885.737 ± 0.24	1310.2 ± 1.5	3.261 ± 0.072
298.15 K, x1 = 0.9447	890.317 ± 0.24	1308.3 ± 1.5	3.107 ± 0.068
303.15 K, x1 = 0.0563	825.535 ± 0.24	1358.1 ± 1.6	8.765 ± 0.2
303.15 K, x1 = 0.1024	827.625 ± 0.24	1354.4 ± 1.6	8.155 ± 0.18
303.15 K, x1 = 0.1544	830.09 ± 0.24	1350.1 ± 1.6	7.554 ± 0.17
303.15 K, x1 = 0.2049	832.6 ± 0.24	1345.9 ± 1.6	7.026 ± 0.16
303.15 K, x1 = 0.2531	835.09 ± 0.24	1341.7 ± 1.6	6.577 ± 0.15
303.15 K, x1 = 0.3066	837.986 ± 0.24	1337.1 ± 1.6	6.114 ± 0.14
303.15 K, x1 = 0.4028	843.566 ± 0.24	1328.9 ± 1.6	5.33 ± 0.12
303.15 K, x1 = 0.5033	849.927 ± 0.24	1320.8 ± 1.5	4.683 ± 0.1
303.15 K, x1 = 0.6031	856.84 ± 0.24	1313.2 ± 1.5	4.089 ± 0.09
303.15 K, x1 = 0.7009	864.279 ± 0.24	1306.3 ± 1.5	3.638 ± 0.08
303.15 K, x1 = 0.8043	872.98 ± 0.24	1299.7 ± 1.5	3.162 ± 0.069
303.15 K, x1 = 0.8532	877.42 ± 0.24	1296.7 ± 1.5	2.979 ± 0.065
303.15 K, x1 = 0.8996	881.86 ± 0.24	1294.2 ± 1.5	2.814 ± 0.062
303.15 K, x1 = 0.9447	886.371 ± 0.24	1291.7 ± 1.5	2.671 ± 0.059
308.15 K, x1 = 0.0563	822.068 ± 0.24	1341.5 ± 1.6	7.476 ± 0.17
308.15 K, x1 = 0.1024	824.141 ± 0.24	1337.8 ± 1.6	6.95 ± 0.15
308.15 K, x1 = 0.1544	826.569 ± 0.24	1333.9 ± 1.6	6.449 ± 0.14
308.15 K, x1 = 0.2049	829.044 ± 0.24	1330 ± 1.6	5.981 ± 0.13
308.15 K, x1 = 0.2531	831.491 ± 0.24	1326.1 ± 1.6	5.619 ± 0.12
308.15 K, x1 = 0.3066	834.361 ± 0.24	1321.8 ± 1.5	5.215 ± 0.12
308.15 K, x1 = 0.4028	839.86 ± 0.24	1314.1 ± 1.5	4.618 ± 0.1
308.15 K, x1 = 0.5033	846.141 ± 0.24	1306 ± 1.5	4.088 ± 0.09
308.15 K, x1 = 0.6031	852.988 ± 0.24	1298.2 ± 1.5	3.601 ± 0.079
308.15 K, x1 = 0.7009	860.384 ± 0.24	1290.9 ± 1.5	3.195 ± 0.07
308.15 K, x1 = 0.8043	869.011 ± 0.24	1283.7 ± 1.5	2.808 ± 0.061
308.15 K, x1 = 0.8532	873.415 ± 0.24	1280.6 ± 1.5	2.609 ± 0.057
308.15 K, x1 = 0.8996	877.785 ± 0.24	1277.7 ± 1.5	2.453 ± 0.054
308.15 K, x1 = 0.9447	882.225 ± 0.24	1275.3 ± 1.5	2.295 ± 0.051
313.15 K, x1 = 0.0563	818.532 ± 0.24	1324.8 ± 1.6	–
313.15 K, x1 = 0.1024	820.551 ± 0.24	1321.5 ± 1.6	–
313.15 K, x1 = 0.1544	822.945 ± 0.24	1317.8 ± 1.5	–
313.15 K, x1 = 0.2049	825.399 ± 0.24	1314.2 ± 1.5	–
313.15 K, x1 = 0.2531	827.825 ± 0.24	1310.6 ± 1.5	–
313.15 K, x1 = 0.3066	830.657 ± 0.24	1306.6 ± 1.5	–
313.15 K, x1 = 0.4028	836.098 ± 0.24	1299.4 ± 1.5	–
313.15 K, x1 = 0.5033	842.307 ± 0.24	1292 ± 1.5	–
313.15 K, x1 = 0.6031	849.078 ± 0.24	1284.5 ± 1.5	–
313.15 K, x1 = 0.7009	856.416 ± 0.24	1277 ± 1.5	–
313.15 K, x1 = 0.8043	864.959 ± 0.24	1269.4 ± 1.5	–
313.15 K, x1 = 0.8532	869.328 ± 0.24	1266.2 ± 1.5	–
313.15 K, x1 = 0.8996	873.661 ± 0.24	1262.7 ± 1.5	–
313.15 K, x1 = 0.9447	878.012 ± 0.24	1259.7 ± 1.5	–
